# Where “and” joins values, the source holds several entries; their conditions need not be identical. Equal values may be shown once. Read-outs that look alike come from different tables or passages of the source.
# Tests used:
# chicks = system: chicks
# Procedure: Hatching eggs are obtained from a breeder farm and the eggs are subjected to standard egg cleaning and preparation procedures. Hatched chicks are collected and prepared according to standard procedures (separation of eggshells and unhatched eggs, counted, etc.). Chicks are graded according to established methods. See van de Ven et al., “Significance of chick quality score in broiler production,” Animal 6(10):1677-1683; Boerjan, “Programs for single stage incubation and chick quality,” Avian Poultry Biology Reviews 13:237-238 (2002); Tona et al, “Effects of egg storage time on spread of hatch, chick quality and chick juvenile growth,” Poultry Science 82:736-741 (2003).
# As indicated, certain studies were performed at Western Hatchery in Abbotsford, British Columbia, Canada (“Western”), under the supervision of the inventors and assignee. Approximately 4 million eggs per month are processed through the hatchery.
# The egg room is contiguous to the loading and receiving area of the facility and is exposed to the outside during deliveries for up to 2 to 3 hours daily. […] In addition to the incoming eggs, the egg room includes excess shipping boxes and pallets.
# In June 2016, the egg room and facilities are modified to add a vestibule to the loading dock with plastic curtains and upgrading the HVAC system to provide a third supply duct. […] The use of the egg room is further modified to remove unnecessary equipment including, but not limited to, pallets, cardboard boxes, and crates.
# Setter incubators are set to industry standard conditions: temperature between 37° C. and 38° C. and relative humidity between 40% and 70%.
# FIG. 6 presents the percent hatching of first quality chicks.
# [1] = Day 4 DHP+, summary of replicates stored 4 days
# [2] = Day 5 DHP+, summary of replicates stored 5 days
# [3] = Day 6 DHP+, summary of replicates stored 6 days
# [4] = Day 7 DHP+, summary of replicates stored 7 days
# [5] = Delta Avg. Trtd versus Avg. Untrd, egg storage 4 to 7 days
# [6] = Mean / Avg. Trtd, 22 DHP replicates, egg storage 4 to 7 days
# [7] = with DHP, egg storage 4 days, single replicate of 90 eggs
# [8] = with DHP, egg storage 5 days, single replicate of 90 eggs
# [9] = with DHP, egg storage 6 days, single replicate of 90 eggs
# [10] = with DHP, egg storage 7 days, single replicate of 90 eggs
# Procedure for eggs and hatched chicks: A total of 22 replicates of 90 eggs each of age matched, flock matched eggs are stored prior to incubation for 4 to 7 days in an on-site egg room at about 20° C. […] The paired replicates are then incubated to hatching under standard commercial conditions. At hatching, the following parameters are assessed and recorded: Total Hatchability (%), Fertile Hatchability (%),% Infertile, Early dead (%), Mid dead (%), Late dead (%), Cracked (%), Contaminated (%), Live pip (%), Dead pip (%), Cull dead chick (%), Chick Weight (g), Chick A (%), and Chick B (%).
smiles,measurement,setting,value
"OO [DHP, dry hydrogen peroxide]","% Infertile, delta","eggs and hatched chicks; 4 day delta, DHP+ versus DHP−",0.64%
same,"Chick A, delta","eggs and hatched chicks; 4 day delta, DHP+ versus DHP−",0.14%
same,"Chick B, delta","eggs and hatched chicks; 4 day delta, DHP+ versus DHP−",−0.14%
same,"Chick Weight, delta","eggs and hatched chicks; 4 day delta, DHP+ versus DHP−",0.89 g
same,"Cont, delta","eggs and hatched chicks; 4 day delta, DHP+ versus DHP−",0.00%
same,"Crack, delta","eggs and hatched chicks; 4 day delta, DHP+ versus DHP−",0.32%
same,"Cull dead cks, delta","eggs and hatched chicks; 4 day delta, DHP+ versus DHP−",0.00%
same,"Dead pip, delta","eggs and hatched chicks; 4 day delta, DHP+ versus DHP−",−0.16%
same,"Early dead, delta","eggs and hatched chicks; 4 day delta, DHP+ versus DHP−",−0.33%
same,"Fertile Hatchability, delta","eggs and hatched chicks; 4 day delta, DHP+ versus DHP−",0.12%
same,"Late dead, delta","eggs and hatched chicks; 4 day delta, DHP+ versus DHP−",−0.64%
same,"Live pip, delta","eggs and hatched chicks; 4 day delta, DHP+ versus DHP−",0.63%
same,"Mid dead, delta","eggs and hatched chicks; 4 day delta, DHP+ versus DHP−",0.16%
same,"Total Hatchability, delta","eggs and hatched chicks; 4 day delta, DHP+ versus DHP−",−0.64%
same,"Chick Weight, delta","eggs and hatched chicks; 5 day delta, DHP+ versus DHP−",0.85 g
same,"Cont, delta","eggs and hatched chicks; 5 day delta, DHP+ versus DHP−",0.00%
same,"Crack, delta","eggs and hatched chicks; 5 day delta, DHP+ versus DHP−",−0.19%
same,"Cull dead cks, delta","eggs and hatched chicks; 5 day delta, DHP+ versus DHP−",0.00%
same,"Dead pip, delta","eggs and hatched chicks; 5 day delta, DHP+ versus DHP−",−0.37%
same,"Early dead, delta","eggs and hatched chicks; 5 day delta, DHP+ versus DHP−",−1.70%
same,"Fertile Hatchability, delta","eggs and hatched chicks; 5 day delta, DHP+ versus DHP−",3.20%
same,"Live pip, delta","eggs and hatched chicks; 5 day delta, DHP+ versus DHP−",0.37%
same,"Mid dead, delta","eggs and hatched chicks; 5 day delta, DHP+ versus DHP−",0.74%
same,"% Infertile, delta","eggs and hatched chicks; 6 day delta, DHP+ versus DHP−",0.94%
same,"Chick A, delta","eggs and hatched chicks; 6 day delta, DHP+ versus DHP−",−0.57%
same,"Chick B, delta","eggs and hatched chicks; 6 day delta, DHP+ versus DHP−",0.57%
same,"Chick Weight, delta","eggs and hatched chicks; 6 day delta, DHP+ versus DHP−",0.49 g
same,"Cont, delta","eggs and hatched chicks; 6 day delta, DHP+ versus DHP−",0.00%
same,"Crack, delta","eggs and hatched chicks; 6 day delta, DHP+ versus DHP−",0.00%
same,"Cull dead cks, delta","eggs and hatched chicks; 6 day delta, DHP+ versus DHP−",−0.48%
same,"Dead pip, delta","eggs and hatched chicks; 6 day delta, DHP+ versus DHP−",−0.48%
same,"Late dead, delta","eggs and hatched chicks; 6 day delta, DHP+ versus DHP−",−0.82%
same,"Live pip, delta","eggs and hatched chicks; 6 day delta, DHP+ versus DHP−",−0.16%
same,"Mid dead, delta","eggs and hatched chicks; 6 day delta, DHP+ versus DHP−",0.48%
same,Cont,eggs and hatched chicks; [1],0.00%
same,Crack,eggs and hatched chicks; [1],0.48%
same,Cull dead cks,eggs and hatched chicks; [1],0.00%
same,Dead pip,eggs and hatched chicks; [1],0.16%
same,Live pip,eggs and hatched chicks; [1],0.95%
same,Mid dead,eggs and hatched chicks; [1],0.16%
same,Cont,eggs and hatched chicks; [2],0.00%
same,Crack,eggs and hatched chicks; [2],0.00%
same,Cull dead cks,eggs and hatched chicks; [2],0.00%
same,Dead pip,eggs and hatched chicks; [2],0.00%
same,Live pip,eggs and hatched chicks; [2],0.56%
same,Mid dead,eggs and hatched chicks; [2],0.93%
same,Cont,eggs and hatched chicks; [3],0.00%
same,Crack,eggs and hatched chicks; [3],0.00%
same,Cull dead cks,eggs and hatched chicks; [3],0.00%
same,Dead pip,eggs and hatched chicks; [3],0.00%
same,Early dead,eggs and hatched chicks; [3],2.70%
same,Live pip,eggs and hatched chicks; [3],0.16%
same,Mid dead,eggs and hatched chicks; [3],0.79%
same,% Infertile,eggs and hatched chicks; [4],0.56%
same,Cont,eggs and hatched chicks; [4],0.00%
same,Crack,eggs and hatched chicks; [4],0.00%
same,Cull dead cks,eggs and hatched chicks; [4],0.56%
same,Dead pip,eggs and hatched chicks; [4],0.00%
same,Mid dead,eggs and hatched chicks; [4],0.56%
same,"% Infertile, delta","eggs and hatched chicks; Day 7 Delta, DHP+ versus DHP−",0.00%
same,"Chick Weight, delta","eggs and hatched chicks; Day 7 Delta, DHP+ versus DHP−",1.10 g
same,"Cont, delta","eggs and hatched chicks; Day 7 Delta, DHP+ versus DHP−",−0.56%
same,"Crack, delta","eggs and hatched chicks; Day 7 Delta, DHP+ versus DHP−",0.00%
same,"Cull dead cks, delta","eggs and hatched chicks; Day 7 Delta, DHP+ versus DHP−",0.56%
same,"Dead pip, delta","eggs and hatched chicks; Day 7 Delta, DHP+ versus DHP−",0.00%
same,"Fertile Hatchability, delta","eggs and hatched chicks; Day 7 Delta, DHP+ versus DHP−",0.56%
same,"Late dead, delta","eggs and hatched chicks; Day 7 Delta, DHP+ versus DHP−",0.55%
same,"Mid dead, delta","eggs and hatched chicks; Day 7 Delta, DHP+ versus DHP−",0.56%
same,"Total Hatchability, delta","eggs and hatched chicks; Day 7 Delta, DHP+ versus DHP−",0.56%
same,"% Infertile, delta",eggs and hatched chicks; [5],1.00%
same,"Chick A, delta",eggs and hatched chicks; [5],0.23%
same,"Chick B, delta",eggs and hatched chicks; [5],−0.23%
same,"Chick Weight, delta",eggs and hatched chicks; [5],0.77 g
same,"Cont, delta",eggs and hatched chicks; [5],−0.05%
same,"Crack, delta",eggs and hatched chicks; [5],0.05%
same,"Cull dead cks, delta",eggs and hatched chicks; [5],−0.10%
same,"Dead pip, delta",eggs and hatched chicks; [5],−0.30%
same,"Early dead, delta",eggs and hatched chicks; [5],−1.70%
same,"Late dead, delta",eggs and hatched chicks; [5],−0.97%
same,"Live pip, delta",eggs and hatched chicks; [5],0.35%
same,"Mid dead, delta",eggs and hatched chicks; [5],0.45%
same,Cont,eggs and hatched chicks; [6],0.00%
same,Crack,eggs and hatched chicks; [6],0.15%
same,Cull dead cks,eggs and hatched chicks; [6],0.05%
same,Dead pip,eggs and hatched chicks; [6],0.05%
same,Live pip,eggs and hatched chicks; [6],0.61%
same,Mid dead,eggs and hatched chicks; [6],0.61%
same,improvement in number of A grade chicks,eggs and hatched chicks; all storage times,0.23%
same,increase of fertile hatchability vs untreated,eggs and hatched chicks; an additional day (five days),3.2%
same,increase of total hatchability vs untreated,eggs and hatched chicks; an additional day (five days),1.3%
same,increased weight vs untreated,eggs and hatched chicks; an additional day (five days),0.85 grams
same,DHP gas treated eggs observed to be contaminated,eggs and hatched chicks; at day 7,none
same,decrease of number of early deaths,eggs and hatched chicks; death during incubation,about 1.7%
same,mid cycle deaths,eggs and hatched chicks; death during incubation,decreased
same,change of fertile hatchability vs untreated,eggs and hatched chicks; eggs treated four days,+0.12
same,change of total hatchability vs untreated,eggs and hatched chicks; eggs treated four days,−0.64%
same,increased weight vs untreated,eggs and hatched chicks; eggs treated four days,+0.89 g
same,increase of fertile hatchability vs untreated,eggs and hatched chicks; seven day storage,0.56%
same,increase of total hatchability vs untreated,eggs and hatched chicks; seven day storage,0.56%
same,increased weight vs untreated,eggs and hatched chicks; seven day storage,1.10 grams
same,increase of fertile hatchability vs untreated,eggs and hatched chicks; six days,4.67%
same,increase of total hatchability vs untreated,eggs and hatched chicks; six days,2.96%
same,increased weight vs untreated,eggs and hatched chicks; six days,0.49 grams
same,number of live pip eggs,eggs and hatched chicks; vs untreated,increases
same,% Infer,eggs and hatched chicks; [7],0.00%
same,Chick B,eggs and hatched chicks; [7],2.40% and 4.80% and 3.70%
same,Cont,eggs and hatched chicks; [7],0.00%
same,Crack,eggs and hatched chicks; [7],0.00%
same,Cull dead,eggs and hatched chicks; [7],0.00%
same,Dead pip,eggs and hatched chicks; [7],0.00%
same,Late dead,eggs and hatched chicks; [7],0.00%
same,Live pip,eggs and hatched chicks; [7],0.00%
same,Mid dead,eggs and hatched chicks; [7],0.00%
same,% Infer,eggs and hatched chicks; [8],10.00%
same,Chick A,eggs and hatched chicks; [8],100.0%
same,Cont,eggs and hatched chicks; [8],0.00%
same,Crack,eggs and hatched chicks; [8],0.00%
same,Cull dead,eggs and hatched chicks; [8],0.00%
same,Dead pip,eggs and hatched chicks; [8],0.00%
same,Late dead,eggs and hatched chicks; [8],0.00%
same,Live pip,eggs and hatched chicks; [8],0.00%
same,Mid dead,eggs and hatched chicks; [8],0.00%
same,Total Hatchblty,eggs and hatched chicks; [8],90.00%
same,% Infer,eggs and hatched chicks; [9],0.00%
same,Chick B,eggs and hatched chicks; [9],4.80%
same,Cont,eggs and hatched chicks; [9],0.00%
same,Crack,eggs and hatched chicks; [9],0.00%
same,Cull dead,eggs and hatched chicks; [9],0.00%
same,Dead pip,eggs and hatched chicks; [9],0.00%
same,Late dead,eggs and hatched chicks; [9],0.00%
same,Live pip,eggs and hatched chicks; [9],0.00%
same,Mid dead,eggs and hatched chicks; [9],0.00%
same,Total Hatchblty,eggs and hatched chicks; [9],90.00%
same,% Infer,eggs and hatched chicks; [10],0.00%
same,Check Weight,eggs and hatched chicks; [10],44.94 g and 44.41 g
same,Cont,eggs and hatched chicks; [10],0.00%
same,Crack,eggs and hatched chicks; [10],0.00%
same,Cull dead,eggs and hatched chicks; [10],0.00%
same,Dead pip,eggs and hatched chicks; [10],0.00%
same,Live pip,eggs and hatched chicks; [10],0.00%
same,Mid dead,eggs and hatched chicks; [10],0.00%
same,percent hatching of first quality chicks,"chicks; after installation of DHP to setter incubator environment, about 0.5 ppm in room",83%
same,"After Modification Cull Rate(%), Average",chicks; average of months,1.65%
same,"After Modification First Quality Chick (% Hatched), Average",chicks; average of months,80.82%
same,additional birds available for shipping to the grow-out facility,chicks; egg room DHP,"about 4,000 birds"
same,cull rate lower than before DHP modification,chicks; egg room DHP,at least 1%

# From patent US12102063B2 (SYNEXIS LLC, priority 2017, dated 2024)
